This is an account of results in ChEMBL document CHEMBL4387772, “Design, synthesis and biological evaluation of hypolipidemic compounds based on BRD4 inhibitor RVX-208” (Bioorg Med Chem Lett, 2019).

The target in assay [1] is Bromodomain-containing protein 4 (Homo sapiens, UniProt O60885). Briefly: Inhibition of BRD4 bromodomain 2 (unknown origin) incubated for 30 mins by ELISA. In general terms: In an ELISA, binding on a coated surface is turned into a signal by an enzyme label.
For assay [2], the system named is Rattus norvegicus. Briefly: Antihyperlipidemic activity in Sprague-Dawley rat assessed as decrease in triglyceride level at 30 mg/kg, po administered twice daily for 1 week measured 2 hrs post-last dose by GPO-PAP analysis relative to control. The class given is functional. The arrangement: scale not given: the % may be the effect or the level left.
Assay [3] has as its system Rattus norvegicus. Briefly: Antihyperlipidemic activity in Sprague-Dawley rat assessed as increase in HDL-C level at 30 mg/kg, po administered twice daily for 1 week measured 2 hrs post-last dose by HPLC analysis relative to control. The class given is functional.
Another assay deals with HepG2. The experiment in a line: Up regulation of ApoA1 mRNA expression in human HepG2 cells at 100 uM by RT-PCR analysis relative to control. Type of assay: functional.
Assay [4] deals with Rattus norvegicus. The experiment in a line: Antihyperlipidemic activity in po dosed Sprague-Dawley rat assessed as decrease in triglyceride level administered twice daily for 1 week measured 2 hrs post-last dose by GPO-PAP analysis relative to control. Type of assay: functional. The arrangement: scale not given: the % may be the effect or the level left.
Assay [5] concerns Rattus norvegicus. Briefly: Antihyperlipidemic activity in po dosed Sprague-Dawley rat assessed as increase in HDL-C level administered twice daily for 1 week measured 2 hrs post-last dose by HPLC analysis relative to control. The class given is functional.

Broadly, the IC50 is the concentration at which inhibition is half-maximal. Molecule `COc1cc(OC)c2c(=O)[nH]c(-c3cc(C)c(OC(=O)C(C)(C)Br)c(C)c3)nc2c1` came in with a half-maximal inhibitory concentration (IC50) in assay [1] of 0.0538 µM. Moreover, the figures for the Activity with Rattus norvegicus [2], with Rattus norvegicus [3] and with HepG2 were 36.21%, 19.33% and 34.85%, respectively.

Regarding `COc1cc(OC)c2c(=O)[nH]c(-c3cc(OC)c(OC(=O)CC(=O)OC(C)(C)C(=O)O)c(OC)c3)nc2c1`, the IC50 in assay [1] is > 0.1 µM. Further, the Activity worked out at 50.36% in the assay on Rattus norvegicus [2], 21.58% with Rattus norvegicus [3] and 37.34% in the assay on HepG2.

`CCOC(=O)C(C)(C)Oc1ccc(Cl)cc1` [CLOFIBRATE]: the Activity in the assay on Rattus norvegicus [4] is on record as 41.35%; with Rattus norvegicus [5] it was 5.92%.

Consider `COc1cc(OC)c2c(=O)[nH]c(-c3cc(C)c(OC(=O)CC(=O)OC(C)(C)C(=O)O)c(C)c3)nc2c1`, for which, in assay [1], the half-inhibitory concentration (IC50) was > 0.1 µM. Moreover, the results for the Activity with Rattus norvegicus [2], with Rattus norvegicus [3] and in the assay on HepG2 were 48.59%, 16.46% and 21.67%, respectively.

Regarding `COc1cc(OC)c2c(=O)[nH]c(-c3cc(C)c(OC(=O)C(C)(C)Oc4ccc(Cl)cc4)c(C)c3)nc2c1`, the IC50 in assay [1] amounted to 0.0396 µM. Further, the Activity in the assay on Rattus norvegicus [2] stood at 34.85%; in the assay on Rattus norvegicus [3], 22.5%; in the assay on HepG2, 38.09%.

`COc1cc(OC)c2c(=O)[nH]c(-c3ccc(C(=O)OCCO)cc3)nc2c1` gave an IC50 in assay [1] of 0.071 µM. For the same molecule, the Activity in the assay with Rattus norvegicus [2] was 11.94%; with Rattus norvegicus [3], 16.51%; with HepG2, 25.3%.

Take `COc1cc(OC)c2c(=O)[nH]c(-c3cc(OC)c(OC(=O)C(C)(C)Oc4ccc(Cl)cc4)c(OC)c3)nc2c1`: the IC50 in assay [1] amounted to 0.0097 µM. The figures for the Activity with Rattus norvegicus [2], in the assay on Rattus norvegicus [3] and with HepG2 were 37.34%, 29.39% and 42.65%, respectively.

The molecule `COc1cc(OC)c2c(=O)[nH]c(-c3cc(OC)c(OC(=O)C(C)(C)Br)c(OC)c3)nc2c1` displayed an IC50 in assay [1] of 0.0209 µM. Also, the Activity is 41.63% in the assay with Rattus norvegicus [2], 32.74% in the assay with Rattus norvegicus [3] and 44.82% with HepG2.

Take `COc1cc(OC)c2c(=O)[nH]c(-c3cc(C)c(OCCO)c(C)c3)nc2c1` [APABETALONE]: the Activity with Rattus norvegicus [4] was found to be 3.13%; in the assay with Rattus norvegicus [5] it was 23.84%; in the assay with HepG2, 38.91%.

Molecule `COc1cc(OC)c2c(=O)[nH]c(-c3cc(OC)c(OCCO)c(OC)c3)nc2c1` showed a half-maximal inhibitory concentration (IC50) in assay [1] of 0.0275 µM. The Activity in the assay on Rattus norvegicus [2] came out at 5.07%; with Rattus norvegicus [3], 20.61%; with HepG2, 32.77%.

Regarding `Cc1ccc(C)c(OCCCC(C)(C)C(=O)O)c1` [GEMFIBROZIL], the Activity was determined as 39.66% in the assay on Rattus norvegicus [4] and 7.03% with Rattus norvegicus [5].
